Data set [1] in a line: Inhibition of human ABCG2-mediated multidrug resistance in MDCK2 cells assessed as potentiation of SN-38-induced cytotoxicity by measuring half maximal reversal concentration after 72 hrs by MTT assay. For orientation: Tetrazolium assays rely on reduction of a dye to a coloured formazan, in cell work by metabolically active cells.
Data set [2] can be described thus: Inhibition of human ABCC1-mediated multidrug resistance in MDCK2 cells assessed as potentiation of doxorubicin-induced cytotoxicity by measuring half maximal reversal concentration after 72 hrs by MTT assay.
Data set [3] in a line: Inhibition of human ABCB1-mediated multidrug resistance in human A2780/ADR cells assessed as potentiation of doxorubicin-induced cytotoxicity by measuring half maximal reversal concentration after 72 hrs by MTT assay.

EC50 data for 6 molecules are collected here from BindingDB's records for doi:10.1021/acs.jmedchem.0c00961 (Rheinische Friedrich-Wilhelms-University Bonn, 2020).

SMILES strings stand for the structures.

By EC50 is commonly meant the concentration needed to bring the measured effect to its halfway point. With `Cc1cc(Nc2ccc(C#N)c(C(F)(F)F)c2)nc(-c2ccccc2)n1`, in data set [1], the EC50 came to 15 nM.

In the case of `Cc1cc(Nc2ccc3ncccc3c2)nc(-c2ccccc2)n1`, the figures for the EC50 in data set [1], in data set [2] and in data set [3] were 16 nM, 5150 nM and 8410 nM, respectively.

Turning to `Cc1cc(Nc2ccc(C#N)c(C)c2)nc(-c2ccccc2)n1`, the concentration for a half-maximal effect (EC50) in data set [1] was 11 nM.

As to `Cc1cc(Nc2ccc(C#N)c(Br)c2)nc(-c2ccccc2)n1`, the concentration for a half-maximal effect (EC50) in data set [1] turned out to be 15 nM.

On to `Cc1cc(Nc2ccc(F)c(C#N)c2)nc(-c2ccccc2)n1`, for which the EC50 in data set [1] was determined as 21 nM.

Take `Cc1cc(Nc2ccc([N+](=O)[O-])cc2)nc(-c2ccccc2)n1`: the EC50 in data set [1] came out at 16 nM.
